Reference: patent US20250346599A1, “TRICYCLIC PHTHALAZINONE PARP INHIBITORS AND METHODS OF USE” (Valo Health, Inc., priority 2022, published 2025)

Columns and labels:
[1] = in vivo unbound brain to plasma ratio (Kpuu) at steady state; settings: rat, brain and plasma (unbound), continuous intravenous infusion over 24 hours, Sprague Dawley rats, free drug in brain vs plasma
Protocol: Compounds of the present technology are predicted to show BBB passage according to internal proprietary predictive models. These predictive models were further verified by in vivo experiments. In particular, in vivo unbound brain to plasma ratio (Kpuu) was measured at steady state by comparison of free drug concentrations (protein binding corrected) in brain and plasma after continuous intravenous infusion in Sprague Dawley rats over 24 hours, where a Kpuu of >0.3 represents good brain exposure of the compound.

[2] = biological target: human MDR1 (P-glycoprotein; P-gp) (Homo sapiens (Human), UniProt P08183); test: bi-directional MDCK-MDR1 permeability assay; format: in vitro ADME; settings: for Papp A→B: dog; for Papp A→B / efflux ratio: MDCK-MDR1; for Papp A→B / MDCK-MDR1 Papp A→B (10^−6 cm/s): apical to basolateral direction; for efflux ratio: human, read-out: MDCK-MDR1 ER; for efflux ratio / MDCK-MDR1 ER: efflux ratio B→A/A→B
human MDR1 (P-glycoprotein; P-gp), sequence (P08183 whole entry): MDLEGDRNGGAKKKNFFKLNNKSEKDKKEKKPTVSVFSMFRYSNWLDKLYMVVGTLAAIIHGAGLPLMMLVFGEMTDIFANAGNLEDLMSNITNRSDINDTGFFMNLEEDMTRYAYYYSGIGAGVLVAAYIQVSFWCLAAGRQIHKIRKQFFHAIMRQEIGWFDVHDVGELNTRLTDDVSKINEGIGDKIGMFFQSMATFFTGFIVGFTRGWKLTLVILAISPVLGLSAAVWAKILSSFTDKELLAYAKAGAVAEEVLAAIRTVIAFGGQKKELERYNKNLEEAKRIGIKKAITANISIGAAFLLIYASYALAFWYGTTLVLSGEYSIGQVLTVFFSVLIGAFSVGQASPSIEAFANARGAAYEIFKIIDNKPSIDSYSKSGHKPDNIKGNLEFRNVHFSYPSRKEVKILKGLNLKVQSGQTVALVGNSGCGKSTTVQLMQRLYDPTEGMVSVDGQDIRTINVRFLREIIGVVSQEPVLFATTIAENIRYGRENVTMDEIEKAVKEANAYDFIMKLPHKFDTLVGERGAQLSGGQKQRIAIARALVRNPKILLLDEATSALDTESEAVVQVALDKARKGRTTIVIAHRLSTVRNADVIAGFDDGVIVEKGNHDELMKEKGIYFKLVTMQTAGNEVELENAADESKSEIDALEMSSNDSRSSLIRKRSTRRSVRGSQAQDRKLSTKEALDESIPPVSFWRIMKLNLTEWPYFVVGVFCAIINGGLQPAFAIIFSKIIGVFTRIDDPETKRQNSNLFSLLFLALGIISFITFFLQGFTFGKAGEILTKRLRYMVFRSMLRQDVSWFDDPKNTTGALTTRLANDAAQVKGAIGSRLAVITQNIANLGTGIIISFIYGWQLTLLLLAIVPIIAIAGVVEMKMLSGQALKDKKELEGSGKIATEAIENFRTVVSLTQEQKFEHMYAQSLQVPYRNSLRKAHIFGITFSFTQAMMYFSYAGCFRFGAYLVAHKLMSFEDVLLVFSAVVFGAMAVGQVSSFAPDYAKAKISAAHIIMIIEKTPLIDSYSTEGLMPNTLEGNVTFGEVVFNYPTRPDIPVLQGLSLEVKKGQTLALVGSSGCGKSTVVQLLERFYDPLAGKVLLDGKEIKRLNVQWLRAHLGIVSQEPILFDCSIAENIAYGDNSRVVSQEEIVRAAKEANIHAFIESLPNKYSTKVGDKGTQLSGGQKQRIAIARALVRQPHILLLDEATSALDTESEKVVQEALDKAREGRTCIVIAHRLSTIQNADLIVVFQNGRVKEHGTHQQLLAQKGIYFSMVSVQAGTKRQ
From the text: The bi-directional assay containing a Mandin Darby canine kidney (MDCK) cell line transfected with human MDR1 gene (P-glycoprotein; P-gp) designed to overexpress the MDR1 efflux transporter, a major efflux transporter at the blood brain barrier (BBB), uses an established method that measures the rate of flux of a compound across polarized cell monolayers. As well appreciated in the art, the data generated from the MDCK-MDR1 permeability assay may be used to predict in vivo absorption of drugs. The bi-directional MDCK-MDR1 permeability assay can identify and quantify levels of active efflux. Screening compounds in both the apical to basolateral direction (A→B) and basolateral to apical direction (B→A) across the cell monolayer provides a ratio of B→A/A→B (efflux ratio; “ER”). Unlike the Caco-2 assay, the MDCK-MDR1 assay is not subject to potential efflux interference by breast cancer resistance protein (BCRP). […] The data may further be used to predict blood brain barrier (BBB) permeability via calculation from the data of log(permeability-surface area product) (“log PS”), well-understood to be predictive of the in vivo log([brain concentration]/[plasma concentration]).

PARP1 enzyme = PARP1 enzyme (Homo sapiens (Human), UniProt P09874); test: PARP Mass Spectroscopy Assay (PARP1 enzymatic assay, nicotinamide detection); format: biochemical; settings: 5 nM PARP1, 5 uM β-NAD, 60 min at RT, NAM by mass spectrometry
PARP1 enzyme, sequence (P09874 whole entry): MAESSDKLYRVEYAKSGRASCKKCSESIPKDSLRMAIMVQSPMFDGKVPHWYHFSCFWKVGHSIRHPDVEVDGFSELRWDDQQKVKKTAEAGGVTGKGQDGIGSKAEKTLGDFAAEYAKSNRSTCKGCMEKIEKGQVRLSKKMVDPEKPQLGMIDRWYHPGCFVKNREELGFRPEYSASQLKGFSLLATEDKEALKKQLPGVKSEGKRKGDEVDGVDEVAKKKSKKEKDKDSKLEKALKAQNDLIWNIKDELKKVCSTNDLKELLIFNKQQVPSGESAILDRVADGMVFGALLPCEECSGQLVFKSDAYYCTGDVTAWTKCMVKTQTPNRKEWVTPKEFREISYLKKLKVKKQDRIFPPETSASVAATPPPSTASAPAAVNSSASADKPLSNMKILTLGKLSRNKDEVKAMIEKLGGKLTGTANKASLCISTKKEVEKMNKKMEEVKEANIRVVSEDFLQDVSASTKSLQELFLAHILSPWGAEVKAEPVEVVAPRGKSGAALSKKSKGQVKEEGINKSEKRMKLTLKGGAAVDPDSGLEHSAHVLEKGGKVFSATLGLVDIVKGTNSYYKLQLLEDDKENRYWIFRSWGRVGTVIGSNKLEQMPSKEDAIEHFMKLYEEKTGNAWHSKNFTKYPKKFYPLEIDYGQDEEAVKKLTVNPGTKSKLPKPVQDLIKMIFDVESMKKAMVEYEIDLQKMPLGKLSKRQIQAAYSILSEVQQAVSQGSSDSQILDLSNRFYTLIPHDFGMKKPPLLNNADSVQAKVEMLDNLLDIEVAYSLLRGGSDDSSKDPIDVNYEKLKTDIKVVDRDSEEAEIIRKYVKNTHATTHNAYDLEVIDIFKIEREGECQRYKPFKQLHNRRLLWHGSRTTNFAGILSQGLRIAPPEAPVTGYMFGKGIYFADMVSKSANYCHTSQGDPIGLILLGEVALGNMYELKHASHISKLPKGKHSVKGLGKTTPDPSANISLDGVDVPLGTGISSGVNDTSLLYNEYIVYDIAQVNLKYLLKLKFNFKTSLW
From the text: Materials and Reagents: The PARP1 enzyme was purchased from BPS Bioscience (cat #80501). Tris-HCl, pH 8.0 was purchased from Corning (cat #46-031-CM). Magnesium chloride was purchased from Thermo Fisher Scientific (previously Honeywell Fluka, cat #63020-1L). All other assay components, activated DNA (cat #D4522), core histones (cat #SRP6590), β-Nicotinamide adenine dinucleotide (β-NAD—cat #N8285), 3ABA PARP1 small molecule inhibitor (from the PARP1 Enzyme Activity Assay kit, cat #17-10149), Sodium Chloride (NaCl, cat #56546-1L), Triton X-100 (cat #93443), Dithiothreitol (DTT, cat #43816-250 ML) were all purchased from Millipore Sigma.
Assay Buffer: The assay buffer includes the following reagents: 50 mM Tris-HCl pH 8.0, 50 mM NaCl, 10 mM, MgCl2, 0.01% Triton X-100, and 1 mM DTT.
PARP1 enzymatic assays were performed in 384-well plates in a total volume of 20 μL in the assay buffer. For concentration response curves, compounds were serially diluted 3-fold from 2 mM highest concentration […] to generate a 10-point curve, and 125 nL was transferred to the assay plate using the Echo acoustic dispenser for a final concentration range of 26.6 μM to […] in 10 μL reaction. Five microliters of 10 nM PARP1 enzyme and 100 nM core histones (2×) mix were added to the assay plates and pre-incubated for 30 mins at room temperature (RT). The reaction was initiated by the addition of a 5 μL of 10 uM β-NAD plus 0.02 mg/mL activated DNA (2×) mix. The reaction is incubated for 60 min at RT. The final concentration of the PARP1 enzyme and substrate concentrations were 5 nM and 5 uM, respectively. The positive control (high signal) and negative control (low signal) wells had 125 nL of DMSO in place of compounds. After the incubation is complete, the reaction is stopped by the addition of 10 μL of 10 uM of the 3ABA PARP1 inhibitor, incubated for 5 min at RT, and placed in the −80 C freezer for shipment to the Valo Health site in Branford Connecticut where mass spectrometry will be used to directly detect quantities of nicotinamide (NAM).
The percent inhibition of enzyme activity was calculated according to the following equation: […]
The values of Ssample, Shigh, and Slow in the equation refer to the NAM concentration detected in the assay wells, high control wells, and low control wells, respectively. To determine inhibitor IC50 values, % inhibition of the CRCs (concentration response curves) was fitted to the standard single-site four-parameter logistic equation.

[3] = literature statement; cited from earlier work

Kp uu at 24 h [1] | Papp A→B [2] [×10⁻⁶ cm/s] | efflux ratio [2] | IC50 (PARP1 enzyme) [nM] | MDCK-MDR1 Papp A→B (10^−6 cm/s) [2] | MDCK-MDR1 ER [2] | Structure (SMILES) | central nervous system (CNS) penetration [3]
0.921 | 18.6 | 0.55 | 41 |  |  | O=c1[nH]nc2c3c(cc(F)cc13)NC[C@@H]2c1ccc(F)cc1F [Compound 0114B, (S)-9-(2,4-difluorophenyl)-5-fluoro-2,7,8,9-tetrahydro-3H-pyrido[4,3,2-de]phthalazin-3-one] | 
 | 11.7 | 0.522 | 42 |  |  | O=c1[nH]nc2c3c(cc(F)cc13)NCC2c1ccc(Cl)c(F)c1 (centres unmarked) [Compound 0188-5, 9-(4-chloro-3-fluorophenyl)-5-fluoro-2,7,8,9-tetrahydro-3H-pyrido[4,3,2-de]phthalazin-3-one] | 
 | 11.7 | 0.541 | 28 |  |  | O=c1[nH]nc2c3c(cc(F)cc13)NC[C@H]2c1ccc(Cl)c(F)c1 [Compound 0188A, (R)-9-(4-chloro-3-fluorophenyl)-5-fluoro-2,7,8,9-tetrahydro-3H-pyrido[4,3,2-de]phthalazin-3-one] | 
 |  |  | 41 | 10.6 10^−6 cm/s | 0.59 | O=c1[nH]nc2c3c(cc(F)cc13)NCC2c1ccc(Cl)cc1F (centres unmarked) [Compound 0189-6] | 
 | 13.9 | 0.699 | 21 |  |  | C[C@H]1Nc2cc(F)cc3c(=O)[nH]nc(c23)[C@@H]1c1ccc(Cl)c(F)c1 [Compound 0195A, (8R,9R)-9-(4-chloro-3-fluorophenyl)-5-fluoro-8-methyl-2,7,8,9-tetrahydro-3H-pyrido[4,3,2-de]phthalazin-3-one] | 
 | 16.4 | 0.691 | 26 |  |  | C[C@@H]1Nc2cc(F)cc3c(=O)[nH]nc(c23)[C@H]1c1ccc(Cl)c(F)c1 [Compound 0195B, (8S,9S)-9-(4-chloro-3-fluorophenyl)-5-fluoro-8-methyl-2,7,8,9-tetrahydro-3H-pyrido[4,3,2-de]phthalazin-3-one] | 
 |  |  | 9 | 13 10^−6 cm/s | 0.537 | C[C@H]1Nc2cc(F)cc3c(=O)[nH]nc(c23)[C@@H]1c1ccc(Cl)cc1F [Compound 0196A] | 
 |  |  | 38 | 0.506 10^−6 cm/s | 17.9 | C[C@@H]1Nc2cc(F)cc3c(=O)[nH]nc(c23)[C@@H]1[C@H]1CCCCN1C [Compound 0199C] | 
 |  |  | 9 | 13.4 10^−6 cm/s | 0.695 | CC[C@@H]1Nc2cc(F)cc3c(=O)[nH]nc(c23)[C@H]1c1ccccc1Cl [Compound 0206A, (11S,12S)-12-(2-chlorophenyl)-11-ethyl-7-fluoro-2,3,10-triazatricyclo[7.3.1.0^{5,13}]trideca-1,5(13),6,8-tetraen-4-one] | 
 |  |  | 64 | 9.65 10^−6 cm/s | 0.741 | O=c1[nH]nc2c3c(cc(F)cc13)N[C@@H](C1CC1)[C@@H]2c1ccccc1Cl [Compound 0207A, (11S,12S)-12-(2-chlorophenyl)-11-cyclopropyl-7-fluoro-2,3,10-triazatricyclo[7.3.1.0^{5,13}]trideca-1,5(13),6,8-tetraen-4-one] | 
 |  |  | 6 | 14.4 10^−6 cm/s | 0.532 | O=c1[nH]nc2c3c(cc(F)cc13)N[C@H](C1CC1)[C@H]2c1ccccc1Cl [Compound 0207B, (11R,12R)-12-(2-chlorophenyl)-11-cyclopropyl-7-fluoro-2,3,10-triazatricyclo[7.3.1.0^{5,13}]trideca-1,5(13),6,8-tetraen-4-one] | 
 |  |  | 106 | 2.91 10^−6 cm/s | 6.97 | O=c1[nH]nc2c3c(cc(F)cc13)N[C@@H](C1CCOCC1)[C@@H]2c1ccccc1Cl [Compound 0210A, (11S,12S)-12-(2-chlorophenyl)-7-fluoro-11-(oxan-4-yl)-2,3,10-triazatricyclo[7.3.1.0^{5,13}]trideca-1,5(13),6,8-tetraen-4-one] | 
 |  |  | 142 | 2.27 10^−6 cm/s | 9.91 | O=c1[nH]nc2c3c(cc(F)cc13)N[C@H](C1CCOCC1)[C@H]2c1ccccc1Cl [Compound 0210B, (11R,12R)-12-(2-chlorophenyl)-7-fluoro-11-(oxan-4-yl)-2,3,10-triazatricyclo[7.3.1.0^{5,13}]trideca-1,5(13),6,8-tetraen-4-one] | 
 |  |  | 27 | 9.25 10^−6 cm/s | 2.67 | O=c1[nH]nc2c3c(cc(F)cc13)NC[C@H]2c1ccccn1 [Compound 0211A] | 
 |  |  | 130 | 4.93 10^−6 cm/s | 3.33 | O=c1[nH]nc2c3c(cc(F)cc13)N[C@@H](C1CCC(F)(F)CC1)[C@@H]2c1ccccc1Cl [Compound 0213B] | 
 |  |  | 19 | 8.48 10^−6 cm/s | 1.15 | CC(C)[C@@H]1Nc2cc(F)cc3c(=O)[nH]nc(c23)[C@H]1c1c(F)cc(F)cc1F [Compound 0221B] | 
 |  |  | 18 | 9.59 10^−6 cm/s | 0.92 | CC(C)[C@H]1Nc2cc(F)cc3c(=O)[nH]nc(c23)[C@H]1c1ccccc1Cl [Compound 0222B] | 
 |  |  | 9 | 0.685 10^−6 cm/s | 37 | CC(=O)N1CCC([C@@H]2Nc3cc(F)cc4c(=O)[nH]nc(c34)[C@H]2c2ccccc2Cl)CC1 [Compound 0223B] | 
 |  |  |  |  |  | NC(=O)c1cccc2cn(-c3ccc([C@@H]4CCCNC4)cc3)nc12 [niraparib] | do not have good central nervous system (CNS) penetration
 |  |  |  |  |  | O=C(c1cc(Cc2n[nH]c(=O)c3ccccc23)ccc1F)N1CCN(C(=O)C2CC2)CC1 [olaparib] | do not have good central nervous system (CNS) penetration
 |  |  |  |  |  | CNCc1ccc(-c2[nH]c3cc(F)cc4c3c2CCNC4=O)cc1 [rucaparib] | do not have good central nervous system (CNS) penetration
 |  |  |  |  |  | Cn1ncnc1[C@H]1c2n[nH]c(=O)c3cc(F)cc(c23)N[C@@H]1c1ccc(F)cc1 [talazoparib] | do not have good central nervous system (CNS) penetration

Structure (SMILES) | Kp uu at 24 h [1] | Papp A→B [2] [×10⁻⁶ cm/s] | efflux ratio [2] | IC50 (PARP1 enzyme) [nM] | MDCK-MDR1 Papp A→B (10^−6 cm/s) [2] | MDCK-MDR1 ER [2] | central nervous system (CNS) penetration [3]
N#Cc1ccc([C@H]2CNc3cc(F)cc4c(=O)[nH]nc2c34)c(F)c1 [Compound 0187B] |  |  |  | 41 | 8.56 10^−6 cm/s | 1.67 | 
O=c1[nH]nc2c3c(cc(F)cc13)NC[C@@H]2c1ccc(Cl)cc1F [Compound 0189B] |  |  |  | 29 | 15.6 10^−6 cm/s | 0.538 | 
C[C@H]1Nc2cc(F)cc3c(=O)[nH]nc(c23)[C@@H]1c1ccc(C#N)c(F)c1 [Compound 0193A] |  |  |  | 24 | 5.83 10^−6 cm/s | 2.63 | 
C[C@H]1Nc2cc(F)cc3c(=O)[nH]nc(c23)[C@@H]1c1ccc(C#N)cc1F [Compound 0194A] |  |  |  | 2 | 6.96 10^−6 cm/s | 2.22 | 
